The MIC is the smallest concentration in the dilution series that meets the test's criterion for growth inhibition. A word on the ED50: it is the dose at which the effect has come halfway, by size or by number of responders. A higher ED50 goes with a need for a large dose. What is called solubility is how much of the substance goes into solution per volume. What is called logP is the decadic logarithm of the partition coefficient of the neutral form, usually between octanol and water. High values mean a more lipophilic compound, low ones a more hydrophilic compound.

Each structure is given as a SMILES string. In brackets after ≈: the same amount, converted by molar mass.

The first data set has as its system Acinetobacter. Nature of the data set: In vitro Minimum inhibitory concentration against Acinetobacter CMX 669. The data set is classed as functional. The settings on record: Acinetobacter; read-out: MIC.
Turning to `C[C@@H]1C[C@H](N)CN1c1nc2c(cc1F)c(=O)c(C(=O)O)cn2-c1ccc(F)cc1F`, the MIC is 0.78 µg/mL (≈ 1.86 µM).

The next data set concerns Staphylococcus epidermidis. In words: In vitro Minimum inhibitory concentration against Staphylococcus epidermidis 3519. The data set is classed as functional.
Conditions: not given
With `N[C@H]1CC(CN2CCCC2)N(c2cc3c(cc2F)c(=O)c(C(=O)O)cn3-c2ccc(F)cc2F)C1` (some centres not stated), inhibition of growth (MIC) required 3.1 µg/mL (≈ 6.37 µM).
Same read-out and setting: the result for `C[C@@H]1C[C@H](N)CN1c1nc2c(cc1F)c(=O)c(C(=O)O)cn2-c1ccc(F)cc1F` reads 0.39 µg/mL (≈ 0.932 µM).

The test system of another data set is Escherichia coli. In words: Supercoiling inhibition assay using purified DNA gyrase isolated from Escherichia coli H560. The data set is classed as functional. Particulars: read-out: I50.
For `C[C@@H]1C[C@H](N)CN1c1nc2c(cc1F)c(=O)c(C(=O)O)cn2-c1ccc(F)cc1F`, the IC50 was determined as 7.5 µg/mL (≈ 17.9 µM).

The subject of the next data set is Mus musculus. Nature of the data set: In vivo efficacy against Staphylococcus aureus 10649, in mouse protection tests when administered subcutaneously (sc).
Conditions: not given
The data set is classed as functional.
As to `NC1CCN(c2cc3c(cc2F)c(=O)c(C(=O)O)cn3-c2ccc(F)cc2)C1` (configuration not stated), the ED50 turned out to be 0.8 mg/kg.

A further data set deals with Mus musculus. Nature of the data set: Blood level was evaluated by a disk agar diffusion assay at 3.0 hh when administered at a peroral dose of 25 mg/kg. The data set is classed as functional. Particulars: route oral.
Regarding `C[C@@H]1C[C@H](N)CN1c1nc2c(cc1F)c(=O)c(C(=O)O)cn2-c1ccc(F)cc1F`, the Blood level was 2.2 µg/mL.

In another data set the test system is Staphylococcus aureus. Nature of the data set: In vitro Minimum inhibitory concentration against Staphylococcus aureus CMX 686B.
Conditions: not given
The data set is classed as functional.
`N[C@H]1CC(CN2CCCC2)N(c2cc3c(cc2F)c(=O)c(C(=O)O)cn3-c2ccc(F)cc2F)C1` (some centres not stated): the minimum inhibitory concentration (MIC) is 1.56 µg/mL (≈ 3.21 µM).
Same read-out and setting: the result for `C[C@@H]1C[C@H](N)CN1c1nc2c(cc1F)c(=O)c(C(=O)O)cn2-c1ccc(F)cc1F` reads 0.2 µg/mL (≈ 0.478 µM).

A further data set concerns Klebsiella pneumoniae. Nature of the data set: In vitro Minimum inhibitory concentration against Klebsiella pneumoniae 8045. The data set is classed as functional.
Conditions: not given
For `C[C@@H]1C[C@H](N)CN1c1nc2c(cc1F)c(=O)c(C(=O)O)cn2-c1ccc(F)cc1F`, 0.39 µg/mL (≈ 0.932 µM) was the least that counted as inhibitory (MIC).

The next data set has as its system Klebsiella pneumoniae. Nature of the data set: In vitro Minimum inhibitory concentration against Klebsiella pneumoniae 8045.
Conditions: not given
`N[C@H]1CC(CN2CCCC2)N(c2cc3c(cc2F)c(=O)c(C(=O)O)cn3-c2ccc(F)cc2F)C1` (some centres not stated) gave an MIC of 0.39 µg/mL (≈ 0.802 µM).

The subject of another data set is Streptococcus agalactiae. Nature of the data set: In vitro Minimum inhibitory concentration against Streptococcus agalactiae CMX 508. The data set is classed as functional.
Conditions: not given
For `N[C@H]1CC(CN2CCCC2)N(c2cc3c(cc2F)c(=O)c(C(=O)O)cn3-c2ccc(F)cc2F)C1` (some centres not stated), the minimum inhibitory concentration (MIC) turned out to be 25 µg/mL (≈ 51.4 µM).
Turning to `C[C@@H]1C[C@H](N)CN1c1nc2c(cc1F)c(=O)c(C(=O)O)cn2-c1ccc(F)cc1F`, it took 6.2 µg/mL (≈ 14.8 µM) to inhibit growth (MIC).

For the next data set, the system named is Streptococcus pyogenes. In words: In vitro Minimum inhibitory concentration against Streptococcus pyogenes 930. The data set is classed as functional.
Conditions: not given
`N[C@H]1CC(CN2CCCC2)N(c2cc3c(cc2F)c(=O)c(C(=O)O)cn3-c2ccc(F)cc2F)C1` (some centres not stated) displayed a minimal inhibitory concentration (MIC) of 25 µg/mL (≈ 51.4 µM).
The same measure, in the same setting: the result for `C[C@@H]1C[C@H](N)CN1c1nc2c(cc1F)c(=O)c(C(=O)O)cn2-c1ccc(F)cc1F` reads 1.56 µg/mL (≈ 3.73 µM).

The subject of a further data set is Mus musculus. Nature of the data set: In vivo efficacy against Staphylococcus aureus 10649, in mouse protection tests when administered perorally (po). The data set is classed as functional.
Conditions: not given
On to `NC1CCN(c2cc3c(cc2F)c(=O)c(C(=O)O)cn3-c2ccc(F)cc2)C1` (configuration not stated), for which the 50% effect level (ED50) was put at a dose of 6.2 mg/kg.

In the next data set the test system is Staphylococcus aureus. Nature of the data set: In vitro Minimum inhibitory concentration against Staphylococcus aureus A5177. The data set is classed as functional.
Conditions: not given
Consider `N[C@H]1CC(CN2CCCC2)N(c2cc3c(cc2F)c(=O)c(C(=O)O)cn3-c2ccc(F)cc2F)C1` (some centres not stated), for which the MIC came out at 3.1 µg/mL (≈ 6.37 µM).
For `C[C@@H]1C[C@H](N)CN1c1nc2c(cc1F)c(=O)c(C(=O)O)cn2-c1ccc(F)cc1F`, it took 0.39 µg/mL (≈ 0.932 µM) to inhibit growth (MIC).

Another data set relates to Escherichia coli. In words: In vitro Minimum inhibitory concentration against Escherichia coli Juhl. The data set is classed as functional.
Conditions: not given
The molecule `N[C@H]1CC(CN2CCCC2)N(c2cc3c(cc2F)c(=O)c(C(=O)O)cn3-c2ccc(F)cc2F)C1` (some centres not stated) gave an MIC of 0.78 µg/mL (≈ 1.6 µM).
On to `C[C@@H]1C[C@H](N)CN1c1nc2c(cc1F)c(=O)c(C(=O)O)cn2-c1ccc(F)cc1F`, for which the MIC came out at 0.39 µg/mL (≈ 0.932 µM).

Another data set deals with Staphylococcus aureus. In words: In vitro Minimum inhibitory concentration against Staphylococcus aureus 45. The data set is classed as functional.
Conditions: not given
Regarding `N[C@H]1CC(CN2CCCC2)N(c2cc3c(cc2F)c(=O)c(C(=O)O)cn3-c2ccc(F)cc2F)C1` (some centres not stated), the MIC amounted to 3.1 µg/mL (≈ 6.37 µM).
The same measure, in the same setting: the result for `C[C@@H]1C[C@H](N)CN1c1nc2c(cc1F)c(=O)c(C(=O)O)cn2-c1ccc(F)cc1F` reads 0.39 µg/mL (≈ 0.932 µM).

A further data set deals with Pseudomonas aeruginosa. In words: In vitro Minimum inhibitory concentration against Pseudomonas aeruginosa K799/WT. The data set is classed as functional.
Conditions: not given
In turn, `N[C@H]1CC(CN2CCCC2)N(c2cc3c(cc2F)c(=O)c(C(=O)O)cn3-c2ccc(F)cc2F)C1` (some centres not stated) registered an MIC of 1.56 µg/mL (≈ 3.21 µM).
On to `C[C@@H]1C[C@H](N)CN1c1nc2c(cc1F)c(=O)c(C(=O)O)cn2-c1ccc(F)cc1F`, for which the MIC worked out at 3.1 µg/mL (≈ 7.41 µM).

System in the next data set: not listed separately
Nature of the data set: Compound was evaluated for the solubility in Ringer's buffer solution. The data set is classed as ADME. The settings on record: Ringer's buffer solution; read-out: Solubility.
Take `N[C@H]1CC(CN2CCCC2)N(c2cc3c(cc2F)c(=O)c(C(=O)O)cn3-c2ccc(F)cc2F)C1` (some centres not stated): the solubility was determined as 680 µg/mL (≈ 1400 µM).
On to `C[C@@H]1C[C@H](N)CN1c1nc2c(cc1F)c(=O)c(C(=O)O)cn2-c1ccc(F)cc1F`, for which the solubility came out at 340 µg/mL (≈ 813 µM).

The next data set has as its system Mus musculus. Nature of the data set: Blood level was evaluated by a disk agar diffusion assay at 1.0 hr when administered at a peroral dose of 25 mg/kg. The data set is classed as functional. Particulars: route oral. (Agar diffusion results depend on both activity and mobility in agar.)
Consider `C[C@@H]1C[C@H](N)CN1c1nc2c(cc1F)c(=O)c(C(=O)O)cn2-c1ccc(F)cc1F`, for which the Blood level was 12.4 µg/mL.

A further data set deals with Pseudomonas aeruginosa. Nature of the data set: In vitro Minimum inhibitory concentration against Pseudomonas aeruginosa 5007. The data set is classed as functional.
Conditions: not given
Regarding `N[C@H]1CC(CN2CCCC2)N(c2cc3c(cc2F)c(=O)c(C(=O)O)cn3-c2ccc(F)cc2F)C1` (some centres not stated), the MIC was found to be 1.56 µg/mL (≈ 3.21 µM).
As for `C[C@@H]1C[C@H](N)CN1c1nc2c(cc1F)c(=O)c(C(=O)O)cn2-c1ccc(F)cc1F`, the MIC was found to be 12.5 µg/mL (≈ 29.9 µM).

In the next data set the test system is Mus musculus. In words: Blood level was evaluated by a disk agar diffusion assay at 6.0 hr when administered at a peroral dose of 25 mg/kg. The data set is classed as functional. The settings on record: route oral.
For the molecule `C[C@@H]1C[C@H](N)CN1c1nc2c(cc1F)c(=O)c(C(=O)O)cn2-c1ccc(F)cc1F`, the Blood level is 1.1 µg/mL.

In another data set the test system is Streptococcus equinus. Nature of the data set: In vitro Minimum inhibitory concentration against Streptococcus bovis A5169. The data set is classed as functional.
Conditions: not given
`N[C@H]1CC(CN2CCCC2)N(c2cc3c(cc2F)c(=O)c(C(=O)O)cn3-c2ccc(F)cc2F)C1` (some centres not stated) displayed an MIC of 25 µg/mL (≈ 51.4 µM).
Take `C[C@@H]1C[C@H](N)CN1c1nc2c(cc1F)c(=O)c(C(=O)O)cn2-c1ccc(F)cc1F`: the minimum inhibitory concentration (MIC) turned out to be 6.2 µg/mL (≈ 14.8 µM).

A further data set has as its system Mus musculus. Nature of the data set: Blood level was evaluated by a disk agar diffusion assay at 2.0 hr when administered at a peroral dose of 25 mg/kg. The settings on record: route oral. The data set is classed as functional.
In the case of `C[C@@H]1C[C@H](N)CN1c1nc2c(cc1F)c(=O)c(C(=O)O)cn2-c1ccc(F)cc1F`, the Blood level turned out to be 3.7 µg/mL.

The subject of another data set is Mus musculus. In words: In vivo efficacy against Escherichia coli Juhl, in mouse protection tests when administered subcutaneously (sc). The data set is classed as functional.
Conditions: not given
As to `NC1CCN(c2cc3c(cc2F)c(=O)c(C(=O)O)cn3-c2ccc(F)cc2)C1` (configuration not stated), the 50% effective dose (ED50) is 1 mg/kg.

The subject of a further data set is Enterococcus faecium. In words: In vitro Minimum inhibitory concentration against Streptococcus faecium ATCC 8043. The data set is classed as functional.
Conditions: not given
In the case of `N[C@H]1CC(CN2CCCC2)N(c2cc3c(cc2F)c(=O)c(C(=O)O)cn3-c2ccc(F)cc2F)C1` (some centres not stated), the MIC is 6.2 µg/mL (≈ 12.7 µM).
Still for that read-out and setting: then `C[C@@H]1C[C@H](N)CN1c1nc2c(cc1F)c(=O)c(C(=O)O)cn2-c1ccc(F)cc1F`, with 3.1 µg/mL (≈ 7.41 µM).

System in another data set: not listed separately
In words: Partition coefficient (logP). The data set is classed as physicochemical. The settings on record: octanol/water.
Consider `N[C@H]1CC(CN2CCCC2)N(c2cc3c(cc2F)c(=O)c(C(=O)O)cn3-c2ccc(F)cc2F)C1` (some centres not stated), for which the logP was -0.56.
On to `C[C@@H]1C[C@H](N)CN1c1nc2c(cc1F)c(=O)c(C(=O)O)cn2-c1ccc(F)cc1F`, for which the lipophilicity (logP) is -0.11.

For a further data set, the system named is Mus musculus. Nature of the data set: In vivo efficacy against Escherichia coli Juhl, in mouse protection tests when administered perorally (po).
Conditions: not given
The data set is classed as functional.
As for `NC1CCN(c2cc3c(cc2F)c(=O)c(C(=O)O)cn3-c2ccc(F)cc2)C1` (configuration not stated), it took a dose of 5.8 mg/kg to reach the 50% effect level (ED50).

Another data set has as its system Mus musculus. Nature of the data set: Blood level was evaluated by a disk agar diffusion assay at 24.0 hr when administered at a peroral dose of 25 mg/kg. The settings on record: route oral. The data set is classed as functional.
`C[C@@H]1C[C@H](N)CN1c1nc2c(cc1F)c(=O)c(C(=O)O)cn2-c1ccc(F)cc1F` displayed a Blood level of 0 µg/mL.

The subject of a further data set is Mus musculus. Nature of the data set: Blood level was evaluated by a disk agar diffusion assay at 0.5 hr when administered at a peroral dose of 25 mg/kg. The data set is classed as functional. Particulars: route oral.
Consider `C[C@@H]1C[C@H](N)CN1c1nc2c(cc1F)c(=O)c(C(=O)O)cn2-c1ccc(F)cc1F`, for which the Blood level was 5.3 µg/mL.

Another data set deals with Staphylococcus aureus. Nature of the data set: In vitro Minimum inhibitory concentration against Staphylococcus aureus ATCC 6538P.
Conditions: not given
The data set is classed as functional.
For `N[C@H]1CC(CN2CCCC2)N(c2cc3c(cc2F)c(=O)c(C(=O)O)cn3-c2ccc(F)cc2F)C1` (some centres not stated), the MIC was found to be 1.56 µg/mL (≈ 3.21 µM).
On the same count and under the same terms, the result for `C[C@@H]1C[C@H](N)CN1c1nc2c(cc1F)c(=O)c(C(=O)O)cn2-c1ccc(F)cc1F` reads 0.2 µg/mL (≈ 0.478 µM).

Source of the values: ChEMBL document CHEMBL1124182, “Design, synthesis, and properties of (4S)-7-(4-amino-2-substituted-pyrrolidin-1-yl)quinolone-3-carboxylic acids” (J Med Chem, 1988).
